Measurements from patent US20230416330A1, “Optimized GIP Peptide Analogues” (Antag Therapeutics ApS, priority 2019, published 2023).
Where two headings read alike, the source gives them in different places. Starred links: 1 amine or outer side, 2 acyl side, 3 side chain; linkers in the order of their positions; H or OH if unused. Non-standard residues stand in square brackets, D forms with d. Residues, ends and D or L forms follow the SMILES beside them. Groups on a side chain read outwards from the residue. *: point of attachment. C18 diacid = O=C(O)CCCCCCCCCCCCCCCCC(=O)*; C16 diacid = O=C(O)CCCCCCCCCCCCCCC(=O)*; γGlu = O=C(O)[C@H](CCC(=O)[*:2])N[*:1]; Glutaryl = O=C(CCCC(=O)[*:2])[*:1]; Nle = CCCC[C@H](N)C(=O)O; AEEA = NCCOCCOCC(=O)O; Aib = CC(C)(N)C(=O)O

T1: human GIP receptor (Homo sapiens, UniProt P48546)
T1 construct: host or cells: HEK-293 cells, transient transfection (Lipofectamine 2000), cDNA in pCMV-Script vector
T1 sequence (P48546 22-466): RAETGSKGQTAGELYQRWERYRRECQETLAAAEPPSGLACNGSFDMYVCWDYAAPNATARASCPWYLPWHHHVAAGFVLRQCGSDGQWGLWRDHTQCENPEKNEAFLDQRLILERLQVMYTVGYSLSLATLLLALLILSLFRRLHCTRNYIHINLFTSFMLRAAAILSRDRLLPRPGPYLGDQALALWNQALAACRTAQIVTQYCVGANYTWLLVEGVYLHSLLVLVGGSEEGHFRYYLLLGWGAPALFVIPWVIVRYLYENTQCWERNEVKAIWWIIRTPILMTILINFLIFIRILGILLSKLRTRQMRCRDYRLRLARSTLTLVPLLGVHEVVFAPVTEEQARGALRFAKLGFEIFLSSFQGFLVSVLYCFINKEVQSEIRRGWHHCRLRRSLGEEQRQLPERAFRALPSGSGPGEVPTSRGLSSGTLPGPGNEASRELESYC

T2: human GIP receptor (human, UniProt P48546 22-466)
T2 sequence (looked up): T1 sequence (P48546 22-466)

B1: AT760 (peptide)
peptide: EGTFISDYSIXMDKIKQQDFVNWLLAQKPSSGAPPPS
modifications: Aib at 13; C16-diacid on Lys18 side chain, no linker; C-terminal COOH; GIP(1-42) numbering
B2: AT762 (peptide)
peptide: Glutaryl-GTFISDYSIAMDKIK(C16 diacid)QQDFVEWLLAQKPSSGAPPPS-OH
SMILES: CC[C@H](C)[C@H](NC(=O)[C@H](CO)NC(=O)[C@H](Cc1ccc(O)cc1)NC(=O)[C@H](CC(=O)O)NC(=O)[C@H](CO)NC(=O)[C@@H](NC(=O)[C@H](Cc1ccccc1)NC(=O)[C@@H](NC(=O)CNC(=O)CCCC(=O)O)[C@@H](C)O)[C@@H](C)CC)C(=O)N[C@@H](C)C(=O)N[C@@H](CCSC)C(=O)N[C@@H](CC(=O)O)C(=O)N[C@@H](CCCCN)C(=O)N[C@H](C(=O)N[C@@H](CCCCNC(=O)CCCCCCCCCCCCCCC(=O)O)C(=O)N[C@@H](CCC(N)=O)C(=O)N[C@@H](CCC(N)=O)C(=O)N[C@@H](CC(=O)O)C(=O)N[C@@H](Cc1ccccc1)C(=O)N[C@H](C(=O)N[C@@H](CCC(=O)O)C(=O)N[C@@H](Cc1c[nH]c2ccccc12)C(=O)N[C@@H](CC(C)C)C(=O)N[C@@H](CC(C)C)C(=O)N[C@@H](C)C(=O)N[C@@H](CCC(N)=O)C(=O)N[C@@H](CCCCN)C(=O)N1CCC[C@H]1C(=O)N[C@@H](CO)C(=O)N[C@@H](CO)C(=O)NCC(=O)N[C@@H](C)C(=O)N1CCC[C@H]1C(=O)N1CCC[C@H]1C(=O)N1CCC[C@H]1C(=O)N[C@@H](CO)C(=O)O)C(C)C)[C@@H](C)CC

Legend:
[1] = target: T1, human GIP receptor; experiment: cAMP assay Alternative 2 (Gaddum assay), antagonist potency pKb; assay type: cell-based
[2] = Physical stability: fibril formation in Thioflavin T (ThT) assay with agitation; assay type: physicochemical; settings: 1 mg/ml, TFA, Phosphate (7.4); 25° C., agitation
Method in brief: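 Peptides at 1, 5, 7.5 or 15 mg/ml in 50 mM sodium phosphate pH 7.4 or in water adjusted to pH 7.4 with NaOH, filtered 0.22 μm, with ThT added. Wells held a 3 mm silica bead under 300 rpm orbital agitation at 25° C. Emission at 486 nm tracked continuously; lag time = 10% of transition above baseline.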

[3] = Solubility by visual inspection of peptide solutions; assay type: physicochemical; settings: 1 mg/ml, TFA, Phosphate (7.4)
Method in brief: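 Peptides dissolved at 1, 5, 7.5 or 15 mg/ml in 50 mM sodium phosphate pH 7.4 or water adjusted to pH 7.4 with NaOH, with gentle mixing. Immediate solubility judged visually as a clear, colorless solution.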

[4] = target: T2, human GIP receptor; experiment: cell-based or functional assay
[5] = Table 2C, Gaddum equation, single antagonist dose, HEK-293 hGIPR, read-out: nM (Kb)

Row | Molecule | Kb [1, 5] [nM] | Avr lag time (h) [2] | Visual appearance [3] | Kb [1] [nM] | Avr lag time [2] [h] | nM (Kb, Schild analysis, cAMP) [4] [nM] | pKb (Schild analysis, cAMP) [4]
1 | CC[C@H](C)[C@H](NC(=O)[C@H](CO)NC(=O)[C@H](Cc1ccc(O)cc1)NC(=O)[C@H](CC(=O)O)NC(=O)[C@H](CO)NC(=O)[C@@H](NC(=O)[C@H](Cc1ccccc1)NC(=O)[C@@H](NC(=O)CNC(=O)[C@@H](N)CCC(=O)O)[C@@H](C)O)[C@@H](C)CC)C(=O)N[C@@H](C)C(=O)N[C@@H](CCSC)C(=O)N[C@@H](CC(=O)O)C(=O)N[C@@H](CCCCN)C(=O)N[C@H](C(=O)N[C@@H](Cc1c[nH]cn1)C(=O)N[C@@H](CCC(N)=O)C(=O)N[C@@H](CCC(N)=O)C(=O)N[C@@H](CC(=O)O)C(=O)N[C@@H](Cc1ccccc1)C(=O)N[C@H](C(=O)N[C@@H](CCC(=O)O)C(=O)N[C@@H](Cc1c[nH]c2ccccc12)C(=O)N[C@@H](CC(C)C)C(=O)N[C@@H](CC(C)C)C(=O)N[C@@H](C)C(=O)N[C@@H](CCC(N)=O)C(=O)N[C@@H](CCCCN)C(=O)N1CCC[C@H]1C(=O)N[C@@H](CO)C(=O)N[C@@H](CO)C(=O)N[C@@H](CCCCNC(=O)CCCCCCCCCCCCCCC(=O)O)C(=O)N[C@@H](C)C(=O)N1CCC[C@H]1C(=O)N1CCC[C@H]1C(=O)N1CCC[C@H]1C(=O)N[C@@H](CO)C(=O)O)C(C)C)[C@@H](C)CC [AT743] (H-EGTFISDYSIAMDKIHQQDFVEWLLAQKPSSK(C16 diacid)APPPS-OH; N-terminus assumed) | 19 | fnd (Fnd = fibrils not detected within experiment time (96 hours) with agitation.) | Clear |  |  |  | 
2 | CC[C@H](C)[C@H](NC(=O)[C@H](CO)NC(=O)[C@H](Cc1ccc(O)cc1)NC(=O)[C@H](CC(=O)O)NC(=O)[C@H](CO)NC(=O)[C@@H](NC(=O)[C@H](Cc1ccccc1)NC(=O)[C@@H](NC(=O)CNC(=O)[C@@H](N)CCC(=O)O)[C@@H](C)O)[C@@H](C)CC)C(=O)N[C@@H](C)C(=O)N[C@@H](CCSC)C(=O)N[C@@H](CC(=O)O)C(=O)N[C@@H](CCCCN)C(=O)N[C@H](C(=O)N[C@@H](CCCCNC(=O)CCCCCCCCCCCCCCC(=O)O)C(=O)N[C@@H](CCC(N)=O)C(=O)N[C@@H](CCC(N)=O)C(=O)N[C@@H](CC(=O)O)C(=O)N[C@@H](Cc1ccccc1)C(=O)N[C@H](C(=O)N[C@@H](CCC(=O)O)C(=O)N[C@@H](Cc1c[nH]c2ccccc12)C(=O)N[C@@H](CC(C)C)C(=O)N[C@@H](CC(C)C)C(=O)N[C@@H](C)C(=O)N[C@@H](CCC(=O)O)C(=O)N[C@@H](CCCCN)C(=O)N1CCC[C@H]1C(=O)N[C@@H](CO)C(=O)N[C@@H](CO)C(=O)NCC(=O)N[C@@H](C)C(=O)N1CCC[C@H]1C(=O)N1CCC[C@H]1C(=O)N1CCC[C@H]1C(=O)N[C@@H](CO)C(=O)O)C(C)C)[C@@H](C)CC [AT747] (H-EGTFISDYSIAMDKIK(C16 diacid)QQDFVEWLLAEKPSSGAPPPS-OH; N-terminus assumed) |  |  | Clear | 14 | <24 |  | 
3 | CC[C@H](C)[C@H](NC(=O)[C@H](CO)NC(=O)[C@H](Cc1ccc(O)cc1)NC(=O)[C@H](CC(=O)O)NC(=O)[C@H](CO)NC(=O)[C@@H](NC(=O)[C@H](Cc1ccccc1)NC(=O)[C@@H](NC(=O)CNC(=O)[C@@H](N)CCC(=O)O)[C@@H](C)O)[C@@H](C)CC)C(=O)N[C@@H](C)C(=O)N[C@@H](CCSC)C(=O)N[C@@H](CC(=O)O)C(=O)N[C@@H](CCCCN)C(=O)N[C@H](C(=O)N[C@@H](CCCCNC(=O)CCCCCCCCCCCCCCC(=O)O)C(=O)N[C@@H](CCC(N)=O)C(=O)N[C@@H](CCC(N)=O)C(=O)N[C@@H](CC(=O)O)C(=O)N[C@@H](Cc1ccccc1)C(=O)N[C@H](C(=O)N[C@@H](CCC(=O)O)C(=O)N[C@@H](Cc1c[nH]c2ccccc12)C(=O)N[C@@H](CC(C)C)C(=O)N[C@@H](CC(C)C)C(=O)N[C@@H](C)C(=O)N[C@@H](CCC(N)=O)C(=O)N[C@@H](CCCCN)C(=O)O)C(C)C)[C@@H](C)CC [AT749] (H-EGTFISDYSIAMDKIK(C16 diacid)QQDFVEWLLAQK-OH; N-terminus assumed) | 2.2 |  | Clear |  | <24 |  | 
4 | CC[C@H](C)[C@H](NC(=O)[C@H](CCCCN)NC(=O)[C@H](CCC(=O)O)NC(=O)[C@H](CC(C)C)NC(=O)C(C)(C)NC(=O)[C@@H](NC(=O)[C@H](CO)NC(=O)[C@H](Cc1ccc(O)cc1)NC(=O)[C@H](CCC(=O)O)NC(=O)[C@H](CO)NC(=O)[C@@H](NC(=O)[C@H](Cc1ccccc1)NC(=O)[C@@H](NC(=O)CNC(=O)[C@@H](N)CCC(=O)O)[C@@H](C)O)[C@@H](C)CC)[C@@H](C)CC)C(=O)N[C@@H](CCCCNC(=O)COCCOCCNC(=O)COCCOCCNC(=O)CC[C@H](NC(=O)CCCCCCCCCCCCCCCCC(=O)O)C(=O)O)C(=O)N[C@@H](CCC(N)=O)C(=O)N[C@@H](CCC(N)=O)C(=O)N[C@@H](CC(=O)O)C(=O)N[C@@H](Cc1ccccc1)C(=O)N[C@H](C(=O)N[C@@H](CCC(=O)O)C(=O)N[C@@H](Cc1c[nH]c2ccccc12)C(=O)N[C@@H](CC(C)C)C(=O)N[C@@H](CC(C)C)C(=O)N[C@@H](C)C(=O)N[C@@H](CCC(N)=O)C(=O)N[C@@H](CCCCN)C(=O)N1CCC[C@H]1C(=O)N[C@@H](CO)C(=O)N[C@@H](CO)C(=O)NCC(=O)N[C@@H](C)C(=O)N1CCC[C@H]1C(=O)N1CCC[C@H]1C(=O)N1CCC[C@H]1C(=O)N[C@@H](CO)C(=O)O)C(C)C [AT754] (H-EGTFISEYSI[Aib]LEKIK([AEEA-AEEA-γGlu-C18 diacid])QQDFVEWLLAQKPSSGAPPPS-OH; N-terminus assumed) | 2.2 | fnd (Fnd = fibrils not detected within experiment time (96 hours) with agitation.) | Clear |  |  |  | 
5 | CCCC[C@H](NC(=O)C(C)(C)NC(=O)[C@@H](NC(=O)[C@H](CO)NC(=O)[C@H](Cc1ccc(O)cc1)NC(=O)[C@H](CCC(=O)O)NC(=O)[C@H](CO)NC(=O)[C@@H](NC(=O)[C@H](Cc1ccccc1)NC(=O)[C@@H](NC(=O)CNC(=O)CCCC(=O)O)[C@@H](C)O)[C@@H](C)CC)[C@@H](C)CC)C(=O)N[C@@H](CCC(=O)O)C(=O)N[C@@H](CCCCN)C(=O)N[C@H](C(=O)N[C@@H](CCCCNC(=O)CCCCCCCCCCCCCCC(=O)O)C(=O)N[C@@H](CCC(N)=O)C(=O)N[C@@H](CCC(N)=O)C(=O)N[C@@H](CCC(=O)O)C(=O)N[C@@H](Cc1ccccc1)C(=O)N[C@H](C(=O)N[C@@H](CCC(=O)O)C(=O)N[C@@H](Cc1c[nH]c2ccccc12)C(=O)N[C@@H](CC(C)C)C(=O)N[C@@H](CC(C)C)C(=O)N[C@@H](C)C(=O)N[C@@H](CCC(N)=O)C(=O)N[C@@H](CCCCN)C(=O)N1CCC[C@H]1C(=O)N[C@@H](CO)C(=O)N[C@@H](CO)C(=O)NCC(=O)N[C@@H](C)C(=O)N1CCC[C@H]1C(=O)N1CCC[C@H]1C(=O)N1CCC[C@H]1C(=O)N[C@@H](CO)C(=O)O)C(C)C)[C@@H](C)CC [AT755] (Glutaryl-GTFISEYSI[Aib][Nle]EKIK(C16 diacid)QQEFVEWLLAQKPSSGAPPPS-OH) | 0.23 | fnd (Fnd = fibrils not detected within experiment time (96 hours) with agitation.) | Clear |  |  |  | 
6 | B1 |  |  |  |  |  | 0.46 | 9.3
7 | Glutaryl-GTFISDYSI[Aib]MDKIK(C16 diacid)QQDFVNWLLAQKPSSGAPPPS-OH [AT763] |  |  |  |  |  | 0.14 | 9.9
8 | B2 |  |  |  |  |  | 0.15 | 9.8
